Reference: US20030077653A1, “Method for the identification of active site protease inactivators” (The University of Georgia Research Foundation, Inc., priority 2000, published 2003)
Starred links: 1 amine or outer side, 2 acyl side, 3 side chain; linkers in the order of their positions; H or OH if unused. Residues, ends and D or L forms follow the SMILES beside them. *: point of attachment. AFC = O=c1cc(C(F)(F)F)c2ccc(N*)cc2o1; Morpholide = C1CN(*)CCO1; Cbz = O=C(OCc1ccccc1)*; CO = O=C([*:1])[*:2]; CH2F = FC*

Columns and labels:
Trypsin = test: Differential cleavage (selectivity) test; assay type: biochemical, human; conditions: pH 8.0, Z-R-AFC
Procedure: (§1) In order to perform the assay, the vehicle (for Step VI) or inhibitor (for Step IX) were incubated with the appropriate substrate in the correct assay buffer and allowed to equilibrate. Subsequently, the protease was added, and the assay was allowed to incubate for an appropriate time. The concentrations used in this experiment were as follows: Vehicle was set up at 4×10^−5 M in final assay buffer; Inhibitor was set up at 3×10^−10 M in the final assay buffer. Accordingly, the dosages employed should be the minimal amount of vehicle or inhibitor necessary to induce inhibition. […] Substrates were set up based upon the preferred substrate for cleavage of the particular enzyme.
(§2) Positive controls were set up similarly as described for test controls, except that solvent was added in substitution for the inhibitor or vehicle (in a volume equal to the volume of inhibitor or vehicle addition). All of the inhibitors and vehicles could be dissolved in dimethylsulfoxide (DMSO), and therefore, this was the solvent of choice. Negative controls were set up by adding the inhibitor or vehicle and the preferred substrates in a tube without the protease. All potential non-proteolytic liberation of AFC was therefore controlled for in this tube (a feature which also insured stability of the AFC substrates, since these substrates will freely liberate AFC when unstable).
(§3) All controls were set up in triplicate, and experiments were repeated a minimum of five times.
(§4) Percent inhibition was calculated as: [formula]
(§5) In this preliminary test, we employed the following human-derived enzymes (with indicated mechanistic class): Cathepsin B (cysteine), Cathepsin L (cysteine), Cathepsin H (cysteine), Cathepsin D (aspartic) Trypsin (serine), the purified Taenia solium cysteine protease, and the Taenia solium crude mix. Cathepsin B was prepared in an assay buffer of 10 mM L-cysteine in 0.4 M Citrate buffer, pH 6. 1, using Z-ARR-AFC as the cleavage substrate. Cathepsin L was prepared in an assay buffer of 10 mM L-cysteine in 0.4 M Citrate buffer, pH 5.5, using Z-FR-AFC as the cleavage substrate. Cathepsin H was prepared in an assay buffer of 10 mM L-cysteine in 0.15 M PBS buffer, pH 6.8, using L- R-AFC as the cleavage substrate. Cathepsin D was prepared in an assay buffer of 0.15 M PBS, pH 7.1, using Z-RGFFP-AFC as the cleavage substrate. Trypsin was prepared in an assay buffer of 0.15 M PBS, pH 8.0, supplemented with 100 mM CaCl2 and with Z-R-AFC as the cleavage substrate. Enzyme was incubated so that it was at least 50 times less than the concentration of substrate in order to insure saturating conditions.

Cathepsin D = Cathepsin D (Homo sapiens, UniProt P07339); test: Differential cleavage (selectivity) test; assay type: biochemical; conditions: pH 7.1, Z-RGFFP-AFC
Sequence of Cathepsin D (P07339 65-412): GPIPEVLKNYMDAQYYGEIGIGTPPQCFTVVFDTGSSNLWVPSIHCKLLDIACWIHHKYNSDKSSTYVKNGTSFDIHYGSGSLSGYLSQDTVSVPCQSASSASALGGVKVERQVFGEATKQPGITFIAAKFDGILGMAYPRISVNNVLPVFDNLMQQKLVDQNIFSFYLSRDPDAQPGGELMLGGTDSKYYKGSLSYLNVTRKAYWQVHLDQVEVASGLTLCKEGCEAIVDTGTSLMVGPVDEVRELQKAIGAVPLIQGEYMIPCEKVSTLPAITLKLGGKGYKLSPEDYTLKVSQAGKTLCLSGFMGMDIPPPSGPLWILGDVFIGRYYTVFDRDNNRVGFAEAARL
Procedure: as §1, §2, §3, §4, §5

Cathepsin B = Cathepsin B (Homo sapiens, UniProt P07858); test: Differential cleavage (selectivity) test; assay type: biochemical; conditions: pH 6.1, Z-ARR-AFC
Procedure: as §1, §2, §3, §4, §5

Cathepsin H = target: T1, Cathepsin H (Homo sapiens, UniProt P09668); test: Differential cleavage (selectivity) test; assay type: biochemical; conditions: pH 6.8, L-R-AFC
T1 sequence (P09668 98-335): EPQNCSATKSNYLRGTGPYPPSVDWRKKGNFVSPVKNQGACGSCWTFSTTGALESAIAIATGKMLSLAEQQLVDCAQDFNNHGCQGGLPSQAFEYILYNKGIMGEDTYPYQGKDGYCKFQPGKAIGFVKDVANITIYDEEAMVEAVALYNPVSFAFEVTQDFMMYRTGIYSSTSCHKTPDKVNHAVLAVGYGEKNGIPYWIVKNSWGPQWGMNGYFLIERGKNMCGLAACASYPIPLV
Procedure: as §1, §2, §3, §4, §5

[1] = Observation of side effects in treated mice; assay type: in vivo; conditions: BALB/c mice; for side effects in mice, long-term study: 30 days treatment, 5 months follow-up
Procedure: FIG. 8. […] Each treated mouse was pre-injected intraperitoneally with inhibitor for two days. During treatment phase, each treated mouse received 1.48×10^−2 μg/μl of N2 daily for three weeks and every other day during the last week. Injections were carried out in 150 μl of dimethyl sulfoxide for each mouse. Both treated groups and positive controls were challenged intraperitoneally with 10 Taenia crassiceps cysts in 200 μl 0.15M PBS at the time of initial infection. After one month of infection, both groups were euthanized and cysts removed by washing with sterile 0.15M PBS. A minimum of two attached cysts were scored as multilobed (ML). […] (B) Graphically represents the effect of protease inhibitor treatment of BALB/c mice challenged with Taenia crassiceps cysts over a long-term period. Mice were divided into treated and untreated groups (5 mice/group).Each mouse in the treated group was pre-injected intraperitoneally with inhibitor for two days. Subsequently, all groups were challenged with 10 T. crassiceps cysts in 200 μl of 0.15M PBS. Treatment with inhibitor or placebo (0.15M PBS) was carried out every day for 30 days post-challenge. Cysts were left alone (untreated) for 5 months, and then euthanized. Cysts were then counted by visual inspection. Percent protection is based on the reduction of the total cyst number in comparison to control mice, which never received any treatment.
Mice in all groups survived without noticeable side effects (e.g., coat condition, tail dragging or paresis, etc).
Long-term studies were also conducted to determine over how long a period these inhibitors would maintain a protective effect. In a representative experiment shown here, mice were divided into treated and untreated groups (5 mice/group). Each mouse in the treated group was pre-injected intraperitoneally with inhibitor for two days. Subsequently, all groups were challenged with 10 T. crassiceps cysts in 200 μl 0.1 5M PBS. Treatment with inhibitor or placebo (0. 15M PBS) was carried out every day for 30 days post- challenge. […] Cysts were then counted by visual inspection. […]

Row | Structure (SMILES) | Percent inhibition of Trypsin (serine) (Trypsin; inhibitor 3×10^−10 M) | Percent inhibition of Cathepsin D (aspartic) (Cathepsin D; inhibitor 3×10^−10 M) | Percent inhibition of Cathepsin B (cysteine) (Cathepsin B; inhibitor 3×10^−10 M) | Percent inhibition of Cathepsin H (cysteine) (Cathepsin H; inhibitor 3×10^−10 M) | side effects in mice, long-term study [1] | side effects / inhibitor toxicity in mice, short-term studies ([1]; one month, visual inspection) | Percent inhibition of Trypsin (serine) (Trypsin; vehicle 4×10^−5 M) | Percent inhibition of Cathepsin D (aspartic) (Cathepsin D; vehicle 4×10^−5 M) | Percent inhibition of Cathepsin B (cysteine) (Cathepsin B; vehicle 4×10^−5 M) | Percent inhibition of Cathepsin H (cysteine) (Cathepsin H; vehicle 4×10^−5 M)
1 | CC(C)C[C@H](NC(=O)OCc1ccccc1)C(=O)N[C@@H](CC(C)C)C(=O)N[C@@H](Cc1ccc(O)cc1)C(=O)CF [Z-LLY-FMK, Z-Leu-Leu-Tyr-FMK] (Cbz-Leu-Leu-Tyr-CH2F) | 0% | 0% | 0% | 0% | no side effects | no mice showed effects of inhibitor toxicity | – | – | – | –
2 | CC(C)C[C@H](NC(=O)N1CCOCC1)C(=O)N[C@@H](Cc1ccc(O)cc1)C(=O)Nc1ccc2c(C(F)(F)F)cc(=O)oc2c1 [Mu-LY-AFC, Mu-Leu-Tyr-AFC] ({Morpholide-CO}-Leu-Tyr-{AFC}) | – | – | – | – | – | – | 0% | 0% | 0% | 0%
3 | CC(C)C[C@H](NC(=O)[C@H](CC(C)C)NC(=O)[C@H](CC(C)C)NC(=O)OCc1ccccc1)C(=O)CF [Z-LLL-FMK, Z-Leu-Leu-Leu-fluoromethylketone] (Cbz-Leu-Leu-Leu-CH2F) | 0% | 0% | 0% | 0% | no side effects | – | – | – | – | –
